pIC50: −log10 of the molar value. Where two headings read alike, the source gives them in different places.
What was measured:
[1] = Unbound fraction in plasma (mouse PK table footnote); format: in vitro ADME
[2] = target: T1, human Kv3.4 (Homo sapiens, UniProt Q03721); test: Manual patch clamp electrophysiology, HEK-293 cells stably expressing human Kv3.4; format: cell-based; conditions: for hKv3.4 ECΔ30% increase: concentration increasing current by 30% at the −10 mV step; for hKv3.4 ECΔ5 mV: concentration that shifts activation threshold by 5 mV
T1 construct: expressed in transfected cells
T1 sequence (Q03721 1-635): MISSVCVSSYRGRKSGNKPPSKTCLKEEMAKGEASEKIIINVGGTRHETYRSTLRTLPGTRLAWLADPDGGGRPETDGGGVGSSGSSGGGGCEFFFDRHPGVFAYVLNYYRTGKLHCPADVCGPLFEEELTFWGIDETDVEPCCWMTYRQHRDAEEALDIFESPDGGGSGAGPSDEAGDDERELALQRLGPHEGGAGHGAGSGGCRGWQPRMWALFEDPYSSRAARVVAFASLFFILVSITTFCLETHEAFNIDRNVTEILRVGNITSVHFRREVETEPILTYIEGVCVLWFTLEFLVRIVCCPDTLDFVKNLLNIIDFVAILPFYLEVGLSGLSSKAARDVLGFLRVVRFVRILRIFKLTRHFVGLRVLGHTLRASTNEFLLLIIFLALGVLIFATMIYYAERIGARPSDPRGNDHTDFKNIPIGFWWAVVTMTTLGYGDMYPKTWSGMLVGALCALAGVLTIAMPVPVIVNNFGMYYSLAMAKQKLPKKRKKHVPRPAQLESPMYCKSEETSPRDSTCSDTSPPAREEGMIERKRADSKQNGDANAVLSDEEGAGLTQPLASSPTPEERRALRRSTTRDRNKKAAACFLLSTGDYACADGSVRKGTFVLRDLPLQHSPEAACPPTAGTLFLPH
Procedure: (§1) Manual Patch Clamp Electrophysiological Evaluation, hKv3.1, hKv3.2, hKv3.3, hKv3.4:
(§2) HEK-293 cells stably expressing human Kv3.1b, Kv3.2, Kv3.3 or Kv3.4 were used for the experiments.
(§3) Kv3.1b, Kv3.2: Cells were cultured in MEM medium supplemented with 10% Fetal Bovine Serum, 1% Penicillin/Streptomycin, 2 mM glutamine and 0.6 mg/mL geneticin. Cells were grown to 80-90% confluency at 37° C. and 5% CO2 Kv3.3 or Kv3.4: Cells were cultured in DMEM medium supplemented with 10% Fetal Bovine Serum, 500 ug/mL Geneticidin and 1% Penicillin/Streptomycin. Cells were grown to 80-90% confluency at 37° C. and 5% CO2.
(§4) On the day of the experiment the cells were detached by TrypLE and resuspended in culture medium. Cells were centrifuged, media removed and the cells were resuspended in extracellular buffer containing (in mM): 130 Na-gluconate, 20 NaCl, 4 KCl, 1 MgCl2, 1.8 CaCl2, 10 HEPES and 5 glucose, pH 7.3 adjusted with NaOH, 310-320 mOsm
(§5) Patch-clamp recordings were performed using a manual patch-clamp system (Axon Multiclamp 700B, Digidata 1440, pCLAMP 10, Molecular Devices Corporation) with a fast perfusion system (RSC-160 Rapid solution Changer, BioLogic). Whole-cell recordings were carried out using an intracellular solution containing (in mM): 100 K-gluconate, 40 KCl, 10 HEPES, 1 EGTA, 1 MgCl2, pH 7.2 adjusted with KOH, 290-300 mOsm. Cell membrane potentials were held at −80 mV and current voltage-relationship was generated by voltage steps (50 ms duration) from −100 mV to +10 mV (in 10 mV increments) and then back to −100 mV for 50 ms, with inter-sweep interval of 3 s. The peak current amplitude of −10 mV was monitored until stable (<5% change) by using one step voltage protocol. One IV protocol was run as baseline, then compound perfusion was stared and peak current stability was monitored with single step protocol prior to the IV protocol. Single concentrations were measured per cell. Acceptable cells had seal resistance >500 MOhm, Access resistance <10 MOhm, and leak current <200 pA.
(§6) Data analysis was performed using Clampfit (V10.2) in combination with Microsoft Excel™ (Redmond, Wash., USA). Current voltage relationships were plotted from the peak current (baseline subtracted) at the individual voltage steps normalized to the vehicle addition at 10 mV. The voltage threshold for channel activation was defined as 5% activation of the peak current at 10 mV in presence of vehicle. […] The concentration needed to shift the threshold 5 mV was readout from this curve (ECΔ5 mV), as well as the ability to increase the peak current at the −10 mV step (EC30% increase). […]

[3] = target: hKv1.1/1.2 (Homo sapiens, UniProt P16389+Q09470); test: Off-target Kv1.1/1.2 inhibition electrophysiology (Qpatch); format: cell-based; conditions: up to 30 μM
Procedure: The activity of selected compound examples at three key ion channel off targets was measured, namely Nav1.1, Kv1.1/1.2 and Kv7.2/7.3.
Effects of selected examples on inhibition of the voltage gated heteromeric potassium channel Kv1.1/1.2 was also tested in a use-dependent manner by electrophysiology at concentrations up to 30 μM.

[4] = target: T2, human Kv3.1b (Homo sapiens, UniProt P48547); test: Manual patch clamp electrophysiology, HEK-293 cells stably expressing human Kv3.1b; format: cell-based; conditions: for hKv3.1 ECΔ30% increase: concentration increasing current by 30% at the −10 mV step; for hKv3.1 ECΔ5 mV: concentration that shifts activation threshold by 5 mV
T2 construct: expressed in transfected cells
T2 sequence (P48547 1-585 isoform P48547-2): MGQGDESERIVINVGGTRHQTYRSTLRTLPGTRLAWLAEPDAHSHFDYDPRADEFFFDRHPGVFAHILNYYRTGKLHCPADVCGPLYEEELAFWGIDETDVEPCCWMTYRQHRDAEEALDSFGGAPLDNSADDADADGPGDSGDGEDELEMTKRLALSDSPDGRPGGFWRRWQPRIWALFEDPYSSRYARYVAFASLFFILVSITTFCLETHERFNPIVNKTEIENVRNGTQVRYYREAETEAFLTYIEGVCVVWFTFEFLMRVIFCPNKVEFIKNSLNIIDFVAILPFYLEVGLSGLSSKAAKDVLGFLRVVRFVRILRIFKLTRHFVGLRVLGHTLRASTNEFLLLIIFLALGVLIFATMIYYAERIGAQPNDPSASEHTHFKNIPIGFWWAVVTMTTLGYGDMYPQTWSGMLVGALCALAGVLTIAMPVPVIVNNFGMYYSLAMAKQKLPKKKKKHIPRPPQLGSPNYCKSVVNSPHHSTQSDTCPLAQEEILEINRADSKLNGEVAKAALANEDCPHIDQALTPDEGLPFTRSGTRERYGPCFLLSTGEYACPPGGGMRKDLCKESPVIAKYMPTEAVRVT
Procedure: as §1, §2, §3, §4, §5, §6

[5] = resting, read-out: hKv1.1/1.2 (Qpatch) Resting IC50
[6] = use-dependent, read-out: hKv1.1/1.2 (Qpatch) Use-dependent IC50

hKv1.1/1.2, sequence (Q09470 whole entry): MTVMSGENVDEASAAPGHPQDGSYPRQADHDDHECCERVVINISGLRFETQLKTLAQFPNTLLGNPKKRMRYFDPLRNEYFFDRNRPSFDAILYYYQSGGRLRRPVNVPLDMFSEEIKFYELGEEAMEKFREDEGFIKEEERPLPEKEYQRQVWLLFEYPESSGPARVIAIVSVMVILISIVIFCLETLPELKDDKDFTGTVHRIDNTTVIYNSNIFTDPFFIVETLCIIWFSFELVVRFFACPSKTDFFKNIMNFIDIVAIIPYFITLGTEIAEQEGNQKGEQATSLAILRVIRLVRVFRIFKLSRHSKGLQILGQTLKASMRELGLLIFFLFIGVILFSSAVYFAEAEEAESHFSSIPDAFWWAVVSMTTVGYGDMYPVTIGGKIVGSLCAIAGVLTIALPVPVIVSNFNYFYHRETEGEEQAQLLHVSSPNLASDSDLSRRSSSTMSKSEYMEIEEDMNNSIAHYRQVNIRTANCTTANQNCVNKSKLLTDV
hKv1.1/1.2, sequence (P16389 whole entry): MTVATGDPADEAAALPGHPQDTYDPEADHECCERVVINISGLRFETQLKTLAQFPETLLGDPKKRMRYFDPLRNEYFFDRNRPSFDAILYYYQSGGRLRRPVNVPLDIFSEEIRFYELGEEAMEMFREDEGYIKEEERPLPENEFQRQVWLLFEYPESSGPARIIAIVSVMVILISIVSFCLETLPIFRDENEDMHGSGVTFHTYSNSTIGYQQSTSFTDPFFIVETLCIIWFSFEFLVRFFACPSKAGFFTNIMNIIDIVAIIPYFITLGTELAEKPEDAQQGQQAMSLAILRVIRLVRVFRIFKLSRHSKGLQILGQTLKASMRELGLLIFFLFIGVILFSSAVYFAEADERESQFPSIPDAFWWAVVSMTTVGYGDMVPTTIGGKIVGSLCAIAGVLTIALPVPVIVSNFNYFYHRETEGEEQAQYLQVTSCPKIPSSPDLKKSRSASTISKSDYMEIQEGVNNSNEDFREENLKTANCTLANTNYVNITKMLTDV

Compound	fraction unbound [1]	hKv3.4 ECΔ30% increase [2] [µM]	hKv3.4 ECΔ5 mV [2] [µM]	pIC50 [3, 5]	pIC50 [3, 6]	hKv3.1 ECΔ30% increase [4] [µM]	hKv3.1 ECΔ5 mV [4] [µM]
Cc1ccc(S(=O)(=O)n2ccc(C(=O)NCc3ncco3)c2)cc1 [Compound 86, 1-(4-methylbenzene-1-sulfonyl)-N-[(1,3-oxazol-2-yl)methyl]-1H-pyrrole-3-carboxamide]	0.08	>30	14.4	< 4.52	≤ 4.52	10.1	3.0
Cc1cnc(CNC(=O)c2ccn(S(=O)(=O)c3ccc(F)cc3C)c2)cn1 [Compound 90, 1-(4-fluoro-2-methylbenzene-1-sulfonyl)-N-[(5-methylpyrazin-2-yl)methyl]-1H-pyrrole-3-carboxamide]	0.1	>30	>30	< 4.52	< 4.52	1.8	0.6

Reference: patent publication US20200131156A1, “ARYLSULFONYLPYROLECARBOXAMIDE DERIVATIVES AS Kv3 POTASSIUM CHANNEL ACTIVATORS” (H. Lundbeck A/S, priority 2018, published 2020)
